Values after ≈ are worked out from the molar mass of the structure shown.
How the values were obtained:
Type in all cases: cell-based
[1] = system: Streptococcus Pneumoniae; assay: BMD, broth + horse blood trial
[2] = system: Streptococcus Pneumoniae; assay: E-test, broth + horse blood trial
Protocol: Tables 14 and 15 show the results of experiment whereby a bacteria culture is grown in blood instead of broth. The experiments of Table 14 were conducted by illuminating the light-transmissive wells with a light having a wavelength of 635 nm. The experiments of Table 15 were conducted by illuminating the light-transmissive wells with a light having a wavelength of 650 nm. […] The determination of the best wavelength may or may not be based on the commercial availability of the spectral line. The choice of the optimal wavelength may or may not be determined by calculating the absorbance for various wavelengths. The choice of the optimal wavelength can also be based on the combination of the comparison with the other two methods, the commercial availability and on the calculation of the absorbance for various wavelengths.

[3] = system: Streptococcus Pneumoniae; assay: Optical third-derivative MIC method (MICSTRIP), broth + horse blood; conditions: for MICSTRIP (MIC): broth + horse blood
Description: (§1) The method of FIG. 1 starts at a time equal to zero, t0 (1). Preferably, said t0 is the moment a pure bacteria culture is finished being prepared. Alternatively, said t0 is the moment all wells contain both said bacteria culture and said antimicrobial drug. After the starting of the experiment each well is periodically illuminated with a light source and the intensity of the transmitted light is detected with a photodetector (2). Preferably, each well is illuminated and the intensity of the transmitted light is detected every hour (2). More preferably, each well is illuminated and the intensity of the transmitted light is detected every 5 to 15 min. After a predetermined time length, preferably after 4 hours, a first, a second and a third derivative of said measured intensity is calculated (3) in a first and a second time frame for each well. Preferably, said second time frame is the last measured time frame after the test has been running for said predetermined time length, and said first time frame is the time frame preceding the second time frame. More preferably, said first time frame is between two and three hours and said second time frame is between three and four hours. After the calculation of said derivatives, said first derivative in said second time frame of said reference well is compared to a growth speed threshold value (4). Preferably, said growth speed threshold value is 0.166 (4). If said first derivative in said second time frame of said reference well is larger than or equal to said growth speed threshold value said bacteria culture is classified as Type I (4). If said first derivative in said second time frame of said reference well is smaller than said growth speed threshold value said bacteria culture is classified as Type II (4). Subsequently, independent of the classification of the bacteria culture according to the two types, the method comprises the following steps which are performed for each well or for all wells except said reference well. Both said first and said second time frames are evaluated to see if there is an inflection point present in the second derivative in said first and/or said second time frame (5).
(§2) If said first and/or said second time frame comprise said inflection point than said third derivative in said first time frame is compared to said third derivative in said second time frame (6). If said third derivative in said first time frame is larger than said third derivative in said second time frame, then said first time frame and said second time frame are selected as a first and second time frame to be used in a minimal inhibitory concentration determination method (10). If said third derivative in said first time frame is not larger than said third derivative in said second time frame, then said well is illuminated again after a certain time period, preferably an hour, more preferably 5 to 15 min after said predetermined time length said, with a light source and the intensity of the transmitted light is detected with a photodetector forming a new time frame subsequent to said second time frame (7). A third derivative, and possibly also a first and/or a second derivative, is calculated in said new time frame (7). Further, in step (7) a new first time frame is put equal to said second time frame and a new second time frame to equal to said new time frame. Subsequently, said third derivative in said new first time frame is compared to said third derivative in said new second time frame (8). If said derivative in said new first time frame is larger than said third derivative in said new second time frame, then said new first time frame and said new second time frame are selected as a first and second time frame to be used in a minimal inhibitory concentration determination method (10). […]

[4] = system: Pseudomonas aeruginosa culture; assay: Optical third-derivative MIC method, culture in broth; conditions: for MIC: Pseudomonas aeruginosa
Description: as §1, §2

[5] = system: Pseudomonas aeruginosa culture; assay: Broth microdilution (BMD)
[6] = system: Pseudomonas aeruginosa culture; assay: E-test; conditions: culture PA/2472

Structure (SMILES)	BMD (MIC) ([1]; strain 2532) [µg/mL]	BMD (MIC) ([1]; strain 2543) [µg/mL]	BMD (MIC) ([1]; strain 2544) [µg/mL]	BMD (MIC) ([1]; strain ATCC 49619) [µg/mL]	HR E-test ([2]; strain 2532)	E-test (MIC) ([2]; strain 2543) [µg/mL]	HR E-test ([2]; strain 2543)	E-test (MIC) ([2]; strain 2544) [µg/mL]	HR E-test ([2]; strain 2544)	E-test (MIC) ([2]; strain ATCC 49619) [µg/mL]	HR E-test ([2]; strain ATCC 49619)	MICSTRIP (MIC) ([3]; strain 2532, 635 nm) [µg/mL]	MICSTRIP (MIC) ([3]; strain 2532, 650 nm) [µg/mL]	MICSTRIP (MIC) ([3]; strain 2543, 635 nm) [µg/mL]	MICSTRIP (MIC) ([3]; strain 2543, 650 nm) [µg/mL]	MICSTRIP (MIC) ([3]; strain 2544, 635 nm) [µg/mL]	MICSTRIP (MIC) ([3]; strain 2544, 650 nm) [µg/mL]	MICSTRIP (MIC) ([3]; strain ATCC 49619, 635 nm) [µg/mL]	HR MICSTRIP ([3]; strain ATCC 49619, 650 nm)	MICSTRIP (MIC) ([3]; strain ATCC 49619, 650 nm) [µg/mL]	other results
CC1(C)S[C@@H]2[C@H](NC(=O)Cc3ccccc3)C(=O)N2[C@H]1C(=O)O [Benzyl-penicilline]	0.016	2	0.256	0.256	no	1.5	no	0.1	no	0.25	no	0.016	0.016	1	1	0.256	0.256	0.256	no (If the ratio of the MIC value in the second time frame over the MIC value in the first time frame is lower than or equal to 4 then the ratio is labelled not to be heteroresistant)	0.256	HR MICSTRIP ([3]; strain 2543, 635 nm): no (If the ratio of the MIC value in the second time frame over the MIC value in the first time frame is lower than or equal to 4 then the ratio is labelled not to be heteroresistant); HR MICSTRIP ([3]; strain 2543, 650 nm): no (If the ratio of the MIC value in the second time frame over the MIC value in the first time frame is lower than or equal to 4 then the ratio is labelled not to be heteroresistant); HR MICSTRIP ([3]; strain ATCC 49619, 635 nm): no (If the ratio of the MIC value in the second time frame over the MIC value in the first time frame is lower than or equal to 4 then the ratio is labelled not to be heteroresistant)
CO/N=C(\C(=O)N[C@@H]1C(=O)N2C(C(=O)O)=C(CSc3nc(=O)c(=O)[nH]n3C)CS[C@H]12)c1csc(N)n1 [Ceftriaxone]	0.008	0.256	0.064	0.064	no	0.125	no	0.024	no	0.047	no	0.016	0.016	0.256	0.256	0.064	0.064	0.032	no (If the ratio of the MIC value in the second time frame over the MIC value in the first time frame is lower than or equal to 4 then the ratio is labelled not to be heteroresistant)	> 16	E-test (MIC) ([2]; strain 2532): ≤ 0.16 µg/mL
CO/N=C(\C(=O)N[C@@H]1C(=O)N2C(C(=O)[O-])=C(C[N+]3(C)CCCC3)CS[C@H]12)c1csc(N)n1 [cefepime]																					MIC ([4]; PA/2467, 5 h-6 h, only time frame, omitted from determination (Type II), read-out: MIC (25%)): 8 µg/mL (≈ 16.6 µM); MIC ([4]; PA/2467, 5 h-6 h, only time frame, read-out: MIC (40%)): 8 µg/mL (≈ 16.6 µM); MIC ([4]; PA/2467, 5 h-6 h, only time frame, read-out: MIC (60%)): 4 µg/mL (≈ 8.32 µM); MIC ([4]; PA/2467, 5 h-6 h, only time frame, read-out: MIC (75%)): 4 µg/mL (≈ 8.32 µM); MIC ([4]; PA/2467, FIG. 5F, overall conclusion, read-out: MIC value determined by the method): 8 µg/mL (≈ 16.6 µM); MIC ([5]; culture PA/2467): 16 µg/mL (≈ 33.3 µM)
CC(C)(O/N=C(\C(=O)N[C@@H]1C(=O)N2C(C(=O)[O-])=C(C[n+]3ccccc3)CS[C@H]12)c1csc(N)n1)C(=O)O [ceftazidime]																					MIC ([6]; Pseudomonas aeruginosa): 32 µg/mL (≈ 58.5 µM); HR? (E-test) [6]: no; heteroresistance determined by the method ([4]; PA/2472, FIG. 5E, overall conclusion): not heteroresistant; HR? at MIC (40%) ([4]; PA/2472, ratio MIC T2/T1): no (If the ratio of the MIC value in the second time frame over the MIC value in the first time frame is lower than or equal to 4 then the ratio is labelled not to be heteroresistant); HR? at MIC (60%) ([4]; PA/2472, ratio MIC T2/T1): no (If the ratio of the MIC value in the second time frame over the MIC value in the first time frame is lower than or equal to 4 then the ratio is labelled not to be heteroresistant); HR? at MIC (75%) ([4]; PA/2472, ratio MIC T2/T1): no (If the ratio of the MIC value in the second time frame over the MIC value in the first time frame is lower than or equal to 4 then the ratio is labelled not to be heteroresistant); HR? at MIC (25%) ([4]; PA/2472, ratio MIC T2/T1, omitted (Type II)): no (If the ratio of the MIC value in the second time frame over the MIC value in the first time frame is lower than or equal to 4 then the ratio is labelled not to be heteroresistant); MIC ([4]; PA/2472, 3 h-4 h, omitted from determination (Type II), read-out: MIC (25%) T1): 64 µg/mL (≈ 117 µM); MIC ([4]; PA/2472, 3 h-4 h, read-out: MIC (40%) T1): 32 µg/mL (≈ 58.5 µM); MIC ([4]; PA/2472, 3 h-4 h, read-out: MIC (60%) T1): 32 µg/mL (≈ 58.5 µM); MIC ([4]; PA/2472, 3 h-4 h, read-out: MIC (75%) T1): 32 µg/mL (≈ 58.5 µM); MIC ([4]; PA/2472, 5 h-6 h, omitted from determination (Type II), read-out: MIC (25%) T2): 64 µg/mL (≈ 117 µM); MIC ([4]; PA/2472, 5 h-6 h, read-out: MIC (40%) T2): 32 µg/mL (≈ 58.5 µM); MIC ([4]; PA/2472, 5 h-6 h, read-out: MIC (60%) T2): 32 µg/mL (≈ 58.5 µM); MIC ([4]; PA/2472, 5 h-6 h, read-out: MIC (75%) T2): 32 µg/mL (≈ 58.5 µM); MIC ([4]; PA/2472, FIG. 5E, overall conclusion, read-out: MIC value determined by the method): 32 µg/mL (≈ 58.5 µM); MIC ([5]; culture PA/2472): 32 µg/mL (≈ 58.5 µM)

Reference: US20220389477A1, “METHOD FOR EVALUATING ANTIBIOTIC SUSCEPTIBILITY” (Vrije Universiteit Brussel, priority 2019, published 2022)
